Assay results as given in PubChem BioAssay (NCI).
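Each compound was tested at five concentrations against cells in 96-well plates for 48 hours. At the GI50, growth is halved. The concentration for full growth arrest is given as TGI.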

Key:
Test in all cases: DTP human tumour cell line panel, 48 h
[1] = test system: BT-549 breast
[2] = test system: OVCAR-5 ovarian
[3] = test system: MDA-MB-231 breast
[4] = test system: SN12C renal
[5] = test system: SF-295 CNS
[6] = test system: LOX IMVI melanoma
[7] = test system: T-47D breast
[8] = test system: SK-MEL-2 melanoma
[9] = test system: MCF7 breast
[10] = test system: K-562 leukemia

| SMILES | GI50 [1] [µM] | TGI [1] [µM] | GI50 [2] [µM] | TGI [2] [µM] | GI50 [3] [µM] | TGI [3] [µM] | GI50 [4] [µM] | TGI [4] [µM] | GI50 [5] [µM] | TGI [5] [µM] | GI50 [6] [µM] | TGI [6] [µM] | GI50 [7] [µM] | TGI [7] [µM] | GI50 [8] [µM] | TGI [8] [µM] | GI50 [9] [µM] | TGI [9] [µM] | TGI [10] [µM] | GI50 [10] [µM] |
| --- | --- | --- | --- | --- | --- | --- | --- | --- | --- | --- | --- | --- | --- | --- | --- | --- | --- | --- | --- | --- |
| COC12C=C/C(=C(/C(=O)OCc3ccncn3)C(=O)CCCCCCCCC3(OC)C=C/C(=C(/C(=O)OCc4ccncn4)C(=O)CCCCCCCC1)O3)O2 | 0.225 | 0.78 | 0.334 | 4.81 | 0.335 | > 100 | 0.297 | 1.12 | 0.221 | 0.703 | 0.211 | 0.503 | 0.28 | 25.7 | 0.428 | 5.55 | 0.314 | 11 | – | – |
| CCSc1ncnc2c(C3OC(CO)C(O)C3O)nsc12 (stereo unspecified) | – | – | – | > 100 | – | > 100 | – | > 100 | – | > 100 | – | > 100 | – | > 100 | – | > 100 | – | > 100 | > 100 | – |
| CC1(C)O[C@H](C(=O)O)[C@@H](C(=O)O)O1 | – | – | – | > 100 | – | > 100 | – | > 100 | – | > 100 | – | > 100 | – | > 100 | – | > 100 | – | > 100 | > 100 | – |
| CN(C)N=Nc1ccc([N+](=O)[O-])cc1C(N)=O | – | – | – | > 100 | – | – | – | > 100 | – | > 100 | – | > 100 | – | – | – | > 100 | – | > 100 | > 100 | – |
| CC(=O)Nc1ccc(S(=O)(=O)Nc2nnc(S(N)(=O)=O)s2)cc1 | – | > 100 | – | > 100 | – | > 100 | – | – | – | > 100 | – | > 100 | – | > 100 | – | – | – | > 100 | – | – |
| CC(C)OC(=O)c1ccc(NCC2=CC(=O)C=CC2=O)cc1Cl | – | 9.92 | – | 70.1 | – | 47.6 | – | 44.3 | – | 41.4 | – | 35.6 | – | 7.85 | – | > 100 | – | > 60.1 | – | – |
| CC1CN=C(Nc2cccc(C(F)(F)F)c2)S1 (stereo unspecified) | – | > 100 | – | > 100 | – | > 100 | – | – | – | – | – | > 100 | – | > 100 | – | > 100 | – | > 100 | > 100 | – |
| CCOC(=O)c1c(SC(=O)c2cc(OC)c(OC)c(OC)c2)n(-c2ccccc2)c(=S)n(-c2ccccc2)c1=O | – | – | – | > 100 | – | > 100 | – | > 100 | – | > 100 | – | > 100 | – | > 100 | – | – | – | > 100 | > 100 | – |
| Cc1nc2c(cc1C(=O)NN)c(=O)n(C)c(=O)n2C | – | > 100 | – | > 100 | – | > 100 | – | > 100 | – | > 100 | – | – | – | > 100 | – | > 100 | – | > 100 | > 100 | – |
| CC(=O)N1N=C(c2c(O)ccc3ccccc23)CC1C(=O)c1ccco1 (stereo unspecified) | – | 45 | – | > 100 | – | 74.6 | – | > 100 | – | > 100 | – | – | – | > 100 | – | 43.1 | – | 47.7 | 49.2 | – |
| CCN1CCN(C(=O)[C@]23CC[C@@H](C)[C@H](C)[C@@H]2C2=CC[C@@H]4[C@@]5(C)C/C(=C/c6cccnc6)C(=O)C(C)(C)[C@@H]5CC[C@@]4(C)[C@]2(C)CC3)CC1 | – | – | 1.54 | 2.93 | 1.75 | 3.59 | 1.61 | 3.01 | 1.63 | 3.05 | 1.58 | 3.06 | 2.79 | 13.4 | 2.12 | 4.76 | 1.64 | 3.42 | 7.44 | 2.63 |
| Cc1cn(C2CC(O)C(CO)C2C)c(=O)[nH]c1=O (stereo unspecified) | – | – | – | > 100 | – | – | – | > 100 | – | > 100 | – | > 100 | – | – | – | > 100 | – | – | > 100 | – |
| CO/C(=N\N=C\c1ccc(Cl)cc1)c1ccncc1 | – | – | – | > 100 | – | – | – | > 100 | – | > 100 | – | – | – | – | – | > 100 | – | – | > 100 | – |
| O=S(=O)(c1cc(Cl)ccc1Cl)N1CCN(S(=O)(=O)c2cc(Cl)ccc2Cl)CC1 | – | > 100 | – | 30 | – | > 100 | – | > 100 | – | > 100 | – | – | – | > 100 | – | > 100 | – | > 100 | > 100 | – |
| Cc1ccccc1N=C(N)NC#N | – | > 100 | – | > 100 | – | > 100 | – | > 100 | – | – | – | > 100 | – | – | – | > 100 | – | > 100 | > 100 | – |
| Cc1cccc2c1C(=O)C1(Cc3ccccc3C1=O)C2 (stereo unspecified) | – | – | – | > 100 | – | > 100 | – | > 100 | – | > 100 | – | > 100 | – | > 100 | – | – | – | > 100 | > 100 | – |
| O=[N+]([O-])C(/C(Cl)=C(/Cl)N1CCOCC1)=C1\NCCO1 | – | > 100 | – | > 100 | – | > 100 | – | > 100 | – | > 100 | – | – | – | > 100 | – | > 100 | – | > 100 | – | – |
| C/C(O)=C/c1nc2ccccc2nc1/C=C(/C)O | – | > 100 | – | 79.9 | – | 53 | – | 97.7 | – | 67.5 | – | 56.4 | – | 36.9 | – | 40.1 | – | – | 81 | – |
| CCN(CC)CCCCCCCCNc1c2ccc(Cl)cc2nc2ccc(OC)cc12 | – | – | 1.64 | 3.99 | 1.48 | 3.09 | 1.64 | 3.73 | 1.68 | 3.95 | 1.48 | 4.94 | 2.82 | 6.91 | – | – | – | – | 2.23 | 0.376 |
| CCOC(=O)c1ccc(-c2cc(C)[nH]n2)[nH]1 | – | > 100 | – | > 100 | – | > 100 | – | > 100 | – | > 100 | – | > 100 | – | > 100 | – | > 100 | – | – | – | – |
| Cc1cc(S(=O)(=O)Nc2nc3ccsc3c(=O)n2N)c(S)cc1Cl | – | > 100 | – | > 100 | – | > 100 | – | > 100 | – | > 100 | – | > 100 | – | – | – | > 100 | – | > 100 | > 100 | – |
| CC(C)(C)C#C[P+](c1ccccc1)(c1ccccc1)c1ccccc1 | – | – | – | 2.4 | – | – | – | 0.877 | – | 1.49 | – | 1.4 | – | – | – | 1.45 | – | – | 4.83 | – |
